Measurements taken from PubChem BioAssay (NCI).
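In this assay, cells in 96-well plates receive the compound at five concentrations for 48 hours. Endpoints are linearly interpolated between the surrounding concentrations. TGI marks complete inhibition of growth.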

Legend:
Assay in all cases: inhibition of tumour cell growth, NCI panel, 48 h
KM20L2 colon = test system: KM20L2 colon
LXFL 529 NSCLC = test system: LXFL 529 NSCLC
MOLT-4 leukemia = test system: MOLT-4 leukemia
SNB-19 CNS = test system: SNB-19 CNS
UACC-257 melanoma = test system: UACC-257 melanoma
M19-MEL melanoma = test system: M19-MEL melanoma
HOP-18 NSCLC = test system: HOP-18 NSCLC
OVCAR-4 ovarian = test system: OVCAR-4 ovarian
SR leukemia = test system: SR leukemia

For `Clc1cccc2c1OCC1C(c3ccccc3)=NN(c3ccccc3)C21` (stereo not given), the TGI (KM20L2 colon) was over 100 µM, the TGI (LXFL 529 NSCLC) was over 100 µM and the TGI (MOLT-4 leukemia) was over 100 µM. It also gave a TGI (SNB-19 CNS) of over 100 µM, a TGI (UACC-257 melanoma) of over 100 µM and a TGI (M19-MEL melanoma) of over 100 µM. It also gave a TGI (HOP-18 NSCLC) of over 100 µM.
Work on `O=C(Sc1sc(=S)sc1SC(=O)c1ccccc1)c1ccccc1` yielded a TGI (KM20L2 colon) of over 100 µM, a TGI (LXFL 529 NSCLC) of over 100 µM and a TGI (MOLT-4 leukemia) of over 100 µM. The TGI (SNB-19 CNS) was over 100 µM, the TGI (UACC-257 melanoma) was over 100 µM and the TGI (M19-MEL melanoma) was 51 µM. It also gave a TGI (HOP-18 NSCLC) of over 100 µM and a TGI (OVCAR-4 ovarian) of over 100 µM.
Work on `C/C=C1\CCC2c3[nH]c4ccccc4c3CCN2C1` (stereo not given) yielded a TGI (KM20L2 colon) of over 100 µM, a TGI (LXFL 529 NSCLC) of over 100 µM and a TGI (MOLT-4 leukemia) of over 100 µM. It also gave a TGI (SNB-19 CNS) of over 100 µM, a TGI (M19-MEL melanoma) of over 100 µM and a TGI (OVCAR-4 ovarian) of over 100 µM. It also gave a TGI (SR leukemia) of over 100 µM.
Molecule `Cc1cc2c(=O)cc(-c3ccc(F)cc3)oc2c(C(=O)O)c1C` has a TGI (KM20L2 colon) of over 100 µM, a TGI (LXFL 529 NSCLC) of over 100 µM and a TGI (MOLT-4 leukemia) of over 100 µM. The TGI (SNB-19 CNS) was over 100 µM, the TGI (UACC-257 melanoma) was over 100 µM and the TGI (M19-MEL melanoma) was over 100 µM. For the same molecule, the TGI (HOP-18 NSCLC) was over 100 µM and the TGI (OVCAR-4 ovarian) was over 100 µM.
`CC/C(CC(=O)CCC(=O)Nc1ccc(C)c(C)c1)=N\NC(=O)C(N)=O` gave a TGI (KM20L2 colon) of over 100 µM, a TGI (LXFL 529 NSCLC) of over 100 µM and a TGI (MOLT-4 leukemia) of over 100 µM. It also gave a TGI (SNB-19 CNS) of over 100 µM, a TGI (UACC-257 melanoma) of over 100 µM and a TGI (M19-MEL melanoma) of over 100 µM. For the same molecule, the TGI (HOP-18 NSCLC) was over 100 µM, the TGI (OVCAR-4 ovarian) was over 100 µM and the TGI (SR leukemia) was over 100 µM.
Work on `CC12CC(Sc3ccccc3N1)c1ccccc1O2` (stereo not given) yielded a TGI (KM20L2 colon) of 34.6 µM, a TGI (LXFL 529 NSCLC) of 28.4 µM and a TGI (MOLT-4 leukemia) of 44.6 µM. For the same molecule, the TGI (SNB-19 CNS) was 30 µM, the TGI (UACC-257 melanoma) was 27.8 µM and the TGI (M19-MEL melanoma) was 30.9 µM. For the same molecule, the TGI (HOP-18 NSCLC) was 31.6 µM, the TGI (OVCAR-4 ovarian) was 31.2 µM and the TGI (SR leukemia) was 58 µM.
With `CCN(CC)CCC(=O)/C=C/c1ccc(C)cc1` the TGI (KM20L2 colon) was 30 µM, the TGI (LXFL 529 NSCLC) was 20.6 µM and the TGI (MOLT-4 leukemia) was 38.2 µM. The TGI (SNB-19 CNS) was 37.5 µM, the TGI (UACC-257 melanoma) was 30.6 µM and the TGI (M19-MEL melanoma) was 25.4 µM. For the same molecule, the TGI (HOP-18 NSCLC) was 31.5 µM, the TGI (OVCAR-4 ovarian) was 32.7 µM and the TGI (SR leukemia) was 33.3 µM.
With `O=C(NC(=O)c1cc2cc(Br)cc(Br)c2oc1=O)Oc1ccccc1` the TGI (KM20L2 colon) was over 100 µM, the TGI (LXFL 529 NSCLC) was over 100 µM and the TGI (MOLT-4 leukemia) was over 100 µM. The TGI (SNB-19 CNS) was over 100 µM, the TGI (UACC-257 melanoma) was over 100 µM and the TGI (M19-MEL melanoma) was over 100 µM. It also gave a TGI (HOP-18 NSCLC) of over 100 µM and a TGI (OVCAR-4 ovarian) of over 100 µM.
Molecule `O=[N+]([O-])c1ccc(COc2cccc3cccnc23)cc1` has a TGI (KM20L2 colon) of over 100 µM, a TGI (LXFL 529 NSCLC) of over 100 µM and a TGI (MOLT-4 leukemia) of 31.4 µM. The TGI (SNB-19 CNS) was over 100 µM, the TGI (UACC-257 melanoma) was 54.8 µM and the TGI (M19-MEL melanoma) was 38.2 µM. For the same molecule, the TGI (HOP-18 NSCLC) was over 100 µM, the TGI (OVCAR-4 ovarian) was 36.7 µM and the TGI (SR leukemia) was 13.6 µM.
For `COC[C@@H](N=CN1CCc2cc(OC)c(OC)cc2C1)C(C)(C)C`, the TGI (KM20L2 colon) was over 100 µM, the TGI (LXFL 529 NSCLC) was over 100 µM and the TGI (MOLT-4 leukemia) was over 100 µM. For the same molecule, the TGI (SNB-19 CNS) was over 100 µM, the TGI (UACC-257 melanoma) was over 100 µM and the TGI (M19-MEL melanoma) was over 100 µM. The TGI (HOP-18 NSCLC) was over 100 µM, the TGI (OVCAR-4 ovarian) was over 100 µM and the TGI (SR leukemia) was over 100 µM.
Molecule `Cc1ccc(S(=O)(=O)SCc2ccccc2)cc1` has a TGI (KM20L2 colon) of 43.9 µM, a TGI (LXFL 529 NSCLC) of 47.4 µM and a TGI (MOLT-4 leukemia) of 6.22 µM. It also gave a TGI (SNB-19 CNS) of over 91.7 µM, a TGI (UACC-257 melanoma) of over 94.2 µM and a TGI (M19-MEL melanoma) of over 77.4 µM. The TGI (HOP-18 NSCLC) was over 100 µM, the TGI (OVCAR-4 ovarian) was 31.4 µM and the TGI (SR leukemia) was 62.7 µM.
Work on `Cc1ccc2c(CC(=O)O)cc(=O)oc2c1` yielded a TGI (KM20L2 colon) of over 100 µM, a TGI (LXFL 529 NSCLC) of over 100 µM and a TGI (MOLT-4 leukemia) of over 100 µM. The TGI (SNB-19 CNS) was over 100 µM, the TGI (M19-MEL melanoma) was over 100 µM and the TGI (HOP-18 NSCLC) was over 100 µM. For the same molecule, the TGI (OVCAR-4 ovarian) was over 100 µM.
With `Clc1ccc(C2=NOC3C4CCC(C4)C23)cc1` (stereo not given) the TGI (LXFL 529 NSCLC) was over 100 µM, the TGI (MOLT-4 leukemia) was over 100 µM and the TGI (SNB-19 CNS) was over 100 µM. It also gave a TGI (UACC-257 melanoma) of over 100 µM, a TGI (M19-MEL melanoma) of over 100 µM and a TGI (HOP-18 NSCLC) of over 100 µM. The TGI (OVCAR-4 ovarian) was over 100 µM and the TGI (SR leukemia) was over 100 µM.
`Brc1ccc(C2SCc3nc4ccccc4n32)cc1` (stereo not given) showed a TGI (LXFL 529 NSCLC) of 22.2 µM, a TGI (MOLT-4 leukemia) of over 100 µM and a TGI (SNB-19 CNS) of 9.02 µM. It also gave a TGI (M19-MEL melanoma) of 27 µM, a TGI (HOP-18 NSCLC) of 78.5 µM and a TGI (OVCAR-4 ovarian) of 27.4 µM. For the same molecule, the TGI (SR leukemia) was 28.3 µM.
In the case of `O=C(CC1C(=O)Nc2ccccc2S1(=O)=O)Nc1cccc(Cl)c1` (stereo not given), the TGI (KM20L2 colon) is reported as 42.3 µM, the TGI (LXFL 529 NSCLC) is reported as 38.3 µM and the TGI (MOLT-4 leukemia) is reported as 32.3 µM. The TGI (SNB-19 CNS) was 46.8 µM, the TGI (UACC-257 melanoma) was 50 µM and the TGI (M19-MEL melanoma) was 34.8 µM. The TGI (OVCAR-4 ovarian) was 36.6 µM and the TGI (SR leukemia) was 40.7 µM.
`COc1cc2ccc(CC(N)=O)cc2cc1OC` showed a TGI (KM20L2 colon) of over 100 µM, a TGI (LXFL 529 NSCLC) of over 100 µM and a TGI (MOLT-4 leukemia) of over 100 µM. It also gave a TGI (SNB-19 CNS) of over 100 µM, a TGI (UACC-257 melanoma) of over 100 µM and a TGI (M19-MEL melanoma) of over 100 µM. The TGI (HOP-18 NSCLC) was over 100 µM and the TGI (OVCAR-4 ovarian) was over 100 µM.
With `COC1=CC(=O)NCCN1` the TGI (KM20L2 colon) was over 100 µM, the TGI (LXFL 529 NSCLC) was over 100 µM and the TGI (MOLT-4 leukemia) was over 100 µM. It also gave a TGI (SNB-19 CNS) of over 100 µM, a TGI (UACC-257 melanoma) of over 100 µM and a TGI (M19-MEL melanoma) of over 100 µM. For the same molecule, the TGI (HOP-18 NSCLC) was over 100 µM, the TGI (OVCAR-4 ovarian) was over 100 µM and the TGI (SR leukemia) was over 100 µM.
`CN1C(=O)C(=CN(C)c2ccccc2)C(=O)N(C)C1=O` showed a TGI (KM20L2 colon) of over 100 µM, a TGI (LXFL 529 NSCLC) of over 100 µM and a TGI (MOLT-4 leukemia) of over 100 µM. For the same molecule, the TGI (SNB-19 CNS) was over 100 µM, the TGI (UACC-257 melanoma) was over 100 µM and the TGI (M19-MEL melanoma) was over 100 µM. The TGI (HOP-18 NSCLC) was over 100 µM, the TGI (OVCAR-4 ovarian) was over 100 µM and the TGI (SR leukemia) was over 100 µM.
`COc1cc2c(cc1OC)[C@@H]([C@H](O)c1ccccc1)NCC2` gave a TGI (KM20L2 colon) of over 100 µM, a TGI (LXFL 529 NSCLC) of over 100 µM and a TGI (MOLT-4 leukemia) of over 100 µM. The TGI (SNB-19 CNS) was over 100 µM, the TGI (UACC-257 melanoma) was over 100 µM and the TGI (M19-MEL melanoma) was over 100 µM. The TGI (HOP-18 NSCLC) was over 100 µM, the TGI (OVCAR-4 ovarian) was over 100 µM and the TGI (SR leukemia) was over 100 µM.
`Cc1cc(NS(=O)(=O)c2ccc(Nc3c4ccccc4nc4c(C(=O)Nc5ccc(S(=O)(=O)N=C(N)N)cc5)ccc(Cl)c34)cc2)no1` showed a TGI (KM20L2 colon) of over 100 µM, a TGI (LXFL 529 NSCLC) of over 100 µM and a TGI (MOLT-4 leukemia) of 67.3 µM. For the same molecule, the TGI (SNB-19 CNS) was over 100 µM, the TGI (UACC-257 melanoma) was over 100 µM and the TGI (M19-MEL melanoma) was over 100 µM. The TGI (HOP-18 NSCLC) was over 100 µM, the TGI (OVCAR-4 ovarian) was 85.6 µM and the TGI (SR leukemia) was 61 µM.
`COc1ccc2c(c1)CCN1C3=C(CCC3)C(=O)C[C@@H]21` was tested, and the TGI (KM20L2 colon) was over 100 µM, the TGI (LXFL 529 NSCLC) was over 100 µM and the TGI (MOLT-4 leukemia) was over 100 µM. The TGI (SNB-19 CNS) was over 100 µM, the TGI (UACC-257 melanoma) was over 100 µM and the TGI (M19-MEL melanoma) was over 100 µM. It also gave a TGI (HOP-18 NSCLC) of over 100 µM, a TGI (OVCAR-4 ovarian) of over 100 µM and a TGI (SR leukemia) of over 100 µM.
